Source: PMC11335211, “In vivo photocontrol of orexin receptors with a nanomolar light-regulated analogue of orexin-B” (Cellular and Molecular Life Sciences: CMLS, 2024)
One block for each compound: values may come before it. *1 amine or outer side, *2 acyl side, *3 side chain or, on linkers, in order; H or OH if unused. Where a SMILES comes first, the peptide text is derived from it. [ ]: non-standard residue; d: D form. X1 = O=C(Cc1cccc(N=Nc2cccc(CN[*:1])c2)c1)[*:2]

Experiments:
[1] = molecular target: T1, hOX2 (Homo sapiens, UniProt O43614); assay: Radioligand competitive binding assay ([3H]EMPA); set-up: expressed in transfected cells; membranes
T1 sequence (O43614 1-444): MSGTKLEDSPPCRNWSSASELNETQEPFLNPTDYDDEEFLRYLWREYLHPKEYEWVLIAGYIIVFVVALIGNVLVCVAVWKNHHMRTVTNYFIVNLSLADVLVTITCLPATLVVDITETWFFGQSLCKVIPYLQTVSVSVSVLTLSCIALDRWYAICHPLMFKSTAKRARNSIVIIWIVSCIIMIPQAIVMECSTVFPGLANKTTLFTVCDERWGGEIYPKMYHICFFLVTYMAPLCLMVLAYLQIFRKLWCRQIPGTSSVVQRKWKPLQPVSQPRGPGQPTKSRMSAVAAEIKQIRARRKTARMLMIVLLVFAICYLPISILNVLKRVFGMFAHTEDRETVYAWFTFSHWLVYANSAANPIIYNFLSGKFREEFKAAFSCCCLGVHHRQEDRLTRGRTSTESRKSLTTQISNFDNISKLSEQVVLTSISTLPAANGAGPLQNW
Excerpt: The affinity towards OX2 was studied in a competitive radioligand binding assay on membranes derived from HEK-293 cells stably transfected with the human receptor. [^3H]EMPA, an OX2-selective orthosteric antagonist, was used as radioactive tracer to quantify residual binding after competitive displacement in the presence of the unlabeled ligands.^3 Wild-type OX-B and almorexant, a non-selective OX1 and OX2 antagonist, served as controls.^4
[^3H]EMPA (specific activity 27 Ci/mmol) and almorexant were synthesized at Janssen Research & Development LLC (San Diego, CA), while orexin-B was obtained from Bachem (Torrance, CA).
Cell membranes were prepared from a stable pool of HEK-293 cells transfected with the human OX2. Test compounds were dissolved in DMSO (10 mM stock solutions) and diluted in Dulbecco’s phosphate-buffered saline supplemented with 0.1% bovine serum albumin (BSA). Competition studies were performed by incubating the membranes with the OX2-selective antagonist [^3H]EMPA (2 nM) and different concentrations of the test compounds (7 concentrations ranging from 10^−9 to 10^−6 M). After a 60-minute incubation at rt, binding reactions were filtered to separate the excess of free ligand from the membranes. Filters were then counted for radioactivity in a scintillation counter. Nonspecific binding was determined in the presence of 10 µM almorexant.
Specific binding was determined and plotted as a function of the concentration of the compound using GraphPad Prism v8.3.1 (GraphPad Software, San Diego, USA). Data were analyzed by nonlinear regression using a one-site competition model.

[2] = molecular target: T2, human OX1 (Homo sapiens, UniProt O43613); assay: FLIPR Tetra calcium mobilization assay, CHO-K1 cells; type: cell-based; settings: CHO-K1-hOX1; FLIPR; in words
T2 construct: expressed in transfected cells
T2 sequence (O43613 1-425): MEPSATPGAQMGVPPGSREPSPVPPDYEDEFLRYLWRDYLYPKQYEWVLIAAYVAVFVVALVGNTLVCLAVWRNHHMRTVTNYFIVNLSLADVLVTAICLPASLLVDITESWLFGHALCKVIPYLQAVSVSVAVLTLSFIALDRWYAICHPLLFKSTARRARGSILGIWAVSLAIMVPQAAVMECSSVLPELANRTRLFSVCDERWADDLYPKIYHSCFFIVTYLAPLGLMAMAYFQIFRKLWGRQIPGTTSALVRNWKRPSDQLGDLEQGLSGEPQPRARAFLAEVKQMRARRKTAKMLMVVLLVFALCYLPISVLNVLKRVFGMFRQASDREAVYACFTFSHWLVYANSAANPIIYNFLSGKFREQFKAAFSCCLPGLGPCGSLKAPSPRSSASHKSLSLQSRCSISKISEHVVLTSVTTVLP
Protocol: (§1) Samples of trans phOX were kept in the dark both prior to and during the whole duration of the experiment to avoid undesired photoconversion caused by environmental light. Unless differently stated, data for cis phOX were obtained by pre-illuminating the samples for 10 min with 365 nm UV light.
(§2) PFSK-1 cells were cultured in RPMI 1640 supplemented with 10% fetal bovine serum (FBS), 100 units/ml penicillin, and 100 µg/ml streptomycin. Chinese hamster ovary-K1 (CHO-K1) cells stably transfected to express human OX1 were cultured in Dulbecco’s Modified Eagle’s Medium/Nutrient Mixture F-12 Ham (DMEM/F12 1:1) medium supplemented with 10% FBS and 600 µg/ml G418. All cell lines were grown at 37 °C in 5% CO2.
(§3) Cells were plated at 50,000 cells/well in 96-well black-wall plates with poly-D-lysine-coated clear bottoms and grown overnight at 37 °C in 5% CO2. […] Calcium-mediated changes in fluorescence were monitored in a Fluorometric Imaging Plate Reader (FLIPR) Tetra instrument (Molecular Devices, USA). Fluorescence intensity was measured for 12 s to establish baseline fluorescence before addition of the test compound (20 µL/well) and further readings for a total of 155 s (excitation at 470–495 nm, detection at 515–575 nm). […]
(§4) Raw data from the FLIPR Tetra was exported as the difference between maximum and minimum fluorescence observed for each well. […] Agonist potencies (EC50) are expressed as means + SD.

[3] = molecular target: T1, hOX2; assay: In vitro single-cell calcium imaging, tsA201-hOX2; type: cell-based; set-up: expressed in transfected cells; host or cells: tsA201 (transformed human kidney cells), transient, co-transfected with R-GECO1; settings: 100 nM, AUC normalized to dark-adapted phOX, mean, n = 20 cells
Protocol: Transformed human kidney tsA201 cells were purchased from the European Collection of Authenticated Cell Culture. Cells were maintained at 37 °C in a humidified atmosphere with 5% CO2 and grown in Dulbecco’s Modified Eagle’s Medium/Nutrient Mixture F-12 Ham (DMEM/F12 1:1) medium (Life Technologies), supplemented with 10% FBS (Life Technologies) and 1% penicillin/streptomycin (Sigma-Aldrich).
Clones of GFP-labelled orexin receptors were kindly provided by Prof. Jyrki Kukkonen and the exact protein sequences have been reported by Putula et al.. The plasmid for the genetically encoded calcium indicator R-GECO1 was acquired from Addgene. Cells were transiently transfected with hOX1 or hOX2 receptors and R-GECO1 with X-tremeGENE 9 DNA Transfection Reagent (Roche Applied Science) following the manufacturer’s instructions. After 24 h, cells were harvested with accutase (Sigma-Aldrich) and plated onto 16-mm glass coverslips (Fisher Scientific) pre-treated with poly-L-Lysine (Sigma-Aldrich) to allow cell adhesion. Experiments were performed using pre-confluent cultures between 48 and 72 h after transfection. […]
Images were analyzed using FIJI (ImageJ). Data were analyzed and processed using GraphPad Prism v8.3.1. Statistical differences were determined by one-way ANOVA followed by Tukey’s multiple comparison post-hoc test. […]

[4] = molecular target: T1, hOX2; assay: FLIPR Tetra calcium mobilization assay, PFSK-1 cells; type: cell-based; settings: PFSK-1, hOX2; FLIPR; in words
Protocol: as §1, §2, §3, §4

[5] = Resistance to photofatigue; type: physicochemical; settings: several UV (365 nm)/blue (455 nm) cycles of 3 min; 25 µM in PBS pH 7.4, 25 °C; UPLC
Protocol: Stability to photodegradation was evaluated by exposing a phOX sample (25 µM in PBS at pH 7.4 and 25 °C) to alternating intervals (3 min each) of UV and visible light illumination (365 and 455 nm, respectively). The trans-cis isomeric distributions under different illumination conditions were measured by integrating the area of the corresponding peaks after UPLC analysis. These values were then converted to isomer percentages and plotted. After several cycles, no reduction could be observed in the isomers’ peak area, thus confirming photorexin stability to photodegradation.

[6] = test system: OX1; settings: in words; cited from earlier work
Excerpt: (§5) Among these, a family of neuroexcitatory peptides known as orexins (or hypocretins) is critically involved in regulating sleep and wakefulness, energy homeostasis, and reward. Orexin signaling is mediated by two closely related G protein-coupled receptors (GPCRs) – OX1 and OX2 (orexin) receptors – which are strongly conserved among mammals. While orexin cell bodies are concentrated in the hypothalamic area, orexin receptors are widely expressed in the central nervous system (CNS). Their endogenous ligands are two peptides, named ...

[7] = test system: OX2; settings: in words; cited from earlier work
Excerpt: as §5

[8] = test system: OX1 receptor; settings: membrane-based binding assay; ref Langmead et al., 5 (SI); cited from earlier work
Excerpt: Although the lack of binding with all three forms of OX-B - including the native ligand control - came unexpected, similar findings had already been observed for the OX1 receptor.

[9] = set-up: method as in 2 sources, one per row (each row's own in cited_ref): ref 75–77 = [75]; PMID 10087007; 75. Kastin AJ Akerstrom V Orexin A but not orexin B rapidly enters brain from blood by simple diffusion J Pharmacol Exp Ther 1999 289 219 223 10087007 || [76]; PMID 12626669; doi:10.1113/jphysiol.2002.038729; 76. John J Wu M-F Kodama T Siegel JM Intravenously administered hypocretin-1 alters brain amino acid release: an in vivo microdialysis study in rats J Physiol 2003 548 557 562 10.1113/jphysiol.2002.03 || [77]; PMID 14746374; doi:10.1093/sleep/26.8.953; 77. Fujiki N Yoshida Y Ripley B Mignot E Nishino S Effects of IV and ICV hypocretin-1 (orexin A) in hypocretin receptor-2 gene mutated narcoleptic dogs and IV hypocretin-1 replacement therapy in a hyp ||| ref 75 = [75]; PMID 10087007; 75. Kastin AJ Akerstrom V Orexin A but not orexin B rapidly enters brain from blood by simple diffusion J Pharmacol Exp Ther 1999 289 219 223 10087007; settings: intravenous administration or blood-free perfusion in mammals; cited from earlier work

Compound: CNC(=O)[C@@H](c1ccccc1)N1CCc2cc(OC)c(OC)cc2[C@@H]1CCc1ccc(C(F)(F)F)cc1 [almorexant]
Ki [1]: 3 nM
inhibition of [3H]EMPA binding ([1]; control ligands, HEK-293-hOX2 membranes, [3H]EMPA 2 nM, 60 min rt, 10^-9 to 10^-6 M, two independent experiments in triplicates): fully displaced the radioligand

potency [2]: high nanomolar potency
retained activity under UV, relative to dark-adapted peptide ([3]; 365 nm (cis-enriched)): 6%
recovery of calcium response under blue light, relative to initial response ([3]; 455 nm after UV): 52%
potency [4]: high nanomolar potency
Compound: CC[C@H](C)[C@H](NC(=O)CNC(=O)[C@H](C)NC(=O)[C@H](C)NC(=O)Cc1cccc(N=Nc2cccc(CNC(=O)CNC(=O)[C@H](CO)NC(=O)[C@H](C)NC(=O)[C@H](CCC(N)=O)NC(=O)[C@H](CC(C)C)NC(=O)[C@H](CC(C)C)NC(=O)[C@H](CCCNC(=N)N)NC(=O)[C@H](CCC(N)=O)NC(=O)[C@H](CC(C)C)NC(=O)[C@H](CCCNC(=N)N)NC(=O)CNC(=O)[C@H](CCC(N)=O)NC(=O)[C@H](CC(C)C)NC(=O)CN)c2)c1)C(=O)N[C@@H](CC(C)C)C(=O)N[C@H](C(=O)N[C@@H](CCSC)C(N)=O)[C@@H](C)O [photorexin] (H-GLQGRLQRLLQASG[X1]AAGILTM-NH2)
degradation or bleaching over light cycles [5]: without significant degradation or bleaching

Compound: OX-A: endogenous orexin peptide with two disulfide bridges (QPLPDCCRQKTCSCRLYELLHGAGNHAAGILTL; not fully specified; Orexin-A; UniProt O43612 34-66, looked up)
affinity at OX1 [6]: high affinity
affinity at OX2 [7]: high affinity
occupation of OX1 orthosteric site versus [3H]SB-674042 [8]: failed to occupy the receptor orthosteric site
blood-brain barrier penetration [9]: penetrate the blood-brain barrier by simple diffusion
